“And” between values parts separate entries of the source, which are not always exact repeats. Identical values can stand only once. Like-named read-outs stand apart in the source and are kept apart here.
Assays:
[1] = biological target: T1, γ-secretase cleavage of APP (Homo sapiens, UniProt P49768); test: Aβ in conditioned media of APP expressing HEK293 cells transfected with NotchΔE, ELISA; format: cell-based; conditions: for IC50: HEK293, 8 hr treatment; for Aβ levels in cultured cells: high doses
T1 construct: endogenous in cells; host or cells: HEK293 stably expressing Swedish mutant human APP695, transiently transfected with NotchΔE
Procedure: Since many compounds could behave differently in vitro versus in culture cells, cpd E and DAPT were tested in cultured cells (Fig. 2). HEK293 cells stably expressing Swedish mutant APP were transiently transfected with NotchΔE, a truncated Notch construct that is readily cleaved by the γ-secretase to generate NICD for downstream signaling transduction. NotchΔE expressing cells were treated with increasing concentrations of DAPT or cpd E. Cell lysates were subjected to WB for measuring the generation of NICD (Fig. 2A), and conditioned media were collected for Aβ measurement by ELISA (Fig. 2B,C).
Figure 2 Generation of NICD and Aβ from NotchΔE and APP expressing cells. A. Twenty four hrs after the construct carrying NotchΔE was transfected into APP expressing HEK293 cells, cells were treated with DAPT or cpd E for 8 hr and lysed for WB with antibody 1744 to specifically detect the N-terminus of NICD. Bottom panel, the antibody against α-tubulin was applied to normalize the amounts of lysates used for WB. B. Levels of NICD determined by WB were quantified by densitometry (dotted line). Levels of Aβ generated from the γ-secretase cleavage of APP in the presence of DAPT were determined by ELISA. […] C. NICD (dotted line) and Aβ (solid line) production from cpd E-treated cells were compared. […] D. A luciferase reporter construct driven by HES1 promoter was transfected into HEK293 cells followed by treatment with cpd E or DAPT.
Sandwich ELISAs for Aβ were performed as described. The capture antibodies, 2G3 (to Aβ residues 33–40) and 4G8 (to Aβ residues 17–24), were used for Aβ40 and Aβ total species, respectively. The detecting antibodies were biotinylated 82E1 (to Aβ residues 1–16) for Aβ1–40/total or biotinylated 266 for Aβx-40 species. The use of mid-region and C-terminal capturing antibodies and N-terminal detecting antibody for chimeric "Notch-Aβ-like" peptide (Nβ*) has been documented. The combination of several capture/detecting antibodies are use to measure Aβ and Nβ* derived from different precursors. The capture antibody 2G3 and detecting antibody 82E1 were used for measuring Nβ* from APP-α-Notch expressing cells. Since the APP-α-NOTCH is the fusion protein with its juxtamembrane portion of the APP ectodomain (the α-secretase cleavage region) replaced by the corresponding sequence in Notch, the epitopes in APP sequence could still be recognized by 2G3 (C-terminus) and 82E1 (N-terminus). […]
Human embryonic kidney (HEK) 293 cells stably expressing Swedish mutant human APP695 were transfected with different cDNA constructs and maintained in 200 μg/ml G418 (Invitrogen, Carlsbad, CA). […] Conditioned media were collected for ELISA, and cell lysates were analyzed by Western blot as described. […]

[2] = system: Notch target gene her6; test: Whole mount in situ hybridization of Notch target gene her6 in treated zebrafish embryos; format: in vivo
Description: To examine the effect of DAPT and cpd E on Notch signaling, embryos treated with different concentrations of DAPT or cpd E were stained by whole mount in situ hybridization using a her6 probe (Fig 5). The expression level of Notch downstream target gene her6 correlates to the levels of Notch signaling, i.e., a loss of her6 staining corresponds to an inhibition of γ-secretase mediated Notch signaling. We have focused on the specific effect of γ-secretase inhibitors on Notch signaling in brain region.
Figure 5 Expression levels of Notch target gene her6 are consistent with the curvature phenotype. Increasing concentrations of DAPT or cpd E were applied to de-chorionated zebrafish embryos from 24 hpf until 48 hpf, and in situ hybridization of compound-treated embryos was carried out at 48 hpf using the her6 probe. At least 10 to 20 embryos were examined for each experiment. Images were taken at the 64× magnification for stained embryos.
In situ hybridization of compound-treated embryos was carried out at 2 dpf according to standard protocols using the her6 probe. Single-stranded RNA probes against her6 were synthesized from a cDNA clone (provided by Dr. P Raymond, University of Michigan, Ann Arbor, MI) using T7 RNA polymerase after linearization by restriction digest. The probe was then labeled with digoxigenin-UTP (Roche, Basel, Switzerland). At least 10 to 20 embryos were examined for each experiment. Images were taken at 64× magnification for stained embryos.

Row | Compound | IC50 ([1]; IC50 for Aβ generation (levels of Aβ reduced to 50%) in cultured cells) | Aβ levels in cultured cells [1] | her6 expression ([2]; 50 μM, 24 hpf until 48 hpf) | her6 expression ([2]; highest testing doses) | IC50 ([1]; read-out: concentration inhibiting levels of Aβ to 50% in cultured cells) [nM] | her6 expression ([2]; 0.5 μM, 24 hpf until 48 hpf) | her6 expression ([2]; 5 μM, 24 hpf until 48 hpf)
1 | C[C@H](NC(=O)Cc1cc(F)cc(F)c1)C(=O)N[C@H]1N=C(c2ccccc2)c2ccccc2N(C)C1=O [cpd E, (S,S)-2-[2-(3,5-Difluorophenyl)-acetylamino]-N-(1-methyl-2-oxo-5-phenyl-2,3-dihydro-1H-benzo [e] [1,4]diazepin-3-yl)-propionamide] | ~8 nM and 5 nM | efficiently reduced to almost undetectable levels | slightly reduced expression level of her6 gene | reduction of her6 staining | – | – | –
2 | C[C@H](NC(=O)Cc1cc(F)cc(F)c1)C(=O)N[C@H](C(=O)OC(C)(C)C)c1ccccc1 [DAPT, N-[N-(3,5-Difluorophenacetyl-L-alanyl)]-S-phenylglycine t-Butyl Ester] | – | efficiently reduced to almost undetectable levels | significantly reduced or disappeared in most areas | – | ~500 | very similar staining pattern to the control embryos | staining of her6 started to appear

From PMC2637266, “Quantification of gamma-secretase modulation differentiates inhibitor compound selectivity between two substrates Notch and amyloid precursor protein” (Molecular Brain, 2008)
